Measured values published in patent publication US20210292807A1, “METHOD FOR TESTING ANTIMICROBIAL SUSCEPTIBILITY” (priority 2017, published 2021).
In brackets after ≈: the same amount, converted by molar mass. Values belong to the compound of their own block, whether it stands above or below them.

What was measured:
Klebsiella isolates [1] = assay: Broth microdilution MIC (MICBMD) of Klebsiella isolates; type: cell-based, Klebsiella pneumoniae, Klebsiella oxytoca; settings: limited clinical screen concentrations
Experimental: (§1) An aliquot of bacterial suspension was added to 50 mL centrifuge tubes (Corning, N.Y.) containing 9 mL of pre-warmed (37° C.) filtered MHB to produce a final density of 5×10^5-1×10^6 bacteria per mL. This suspension was incubated at 37° C. with shaking at 100 RPM for 30 minutes to obtain an actively dividing culture. An aliquot of antibiotic working solution from the previously described dilution series (appropriate to the concentration tested) was then added to each tube before a further 30-minute incubation with shaking, during which time a microbroth dilution (MBD) plate was prepared for overnight incubation at 37° C. as previously described in Clinical and Laboratory Standards Institute (2015) Performance Standards for Antimicrobial Susceptibility Testing: Informational Supplement. CLSI document M100-S25. Clinical and Laboratory Standards Institute, 950, West Valley Road, Suite 2500, Wayne, Pa., 19087, USA.
FIG. 2 outlines the work flow as exemplified herein. In brief, an isolate was retrieved from cryopreservation, plated onto blood agar to ensure purity, and inoculated into trypticase soy broth (TSB, described above) overnight to simulate biological fluids. A 1 mL aliquot of this overnight suspension was inoculated into Mueller-Hinton broth (MHB) [comprising about 300.0 g beef extract (dehydrated infusion from), about 17.5 g casein hydrolysate, about 1.5 g starch, reconstituted in about 1 L of water, pH 7.3±0.1 as measured and kept at 25° C.] and incubated at 37° C. to ensure bacteria were actively dividing. One aliquot was subjected to traditional microbroth dilution (MBD) susceptibility testing.

Klebsiella isolates [2] = assay: Acoustic flow cytometry-assisted susceptibility test (FAST), MICFAST and S/NS, Klebsiella isolates; type: cell-based, Klebsiella pneumoniae, Klebsiella oxytoca; settings: limited clinical screen concentrations
Experimental: A 1 mL aliquot of bacterial suspension was centrifuged, washed and resuspended in 1 mL filtered Hank's Buffered Salt Solution (HBSS; comprising about 0.137 M NaCl, about 5.4 mM KCl, about 0.25 mM Na2HPO4, about 0.1 g Glucose, about 0.44 mM KH2PO4, 1.3 mM CaCl2), 1.0 mM MgSO4, about 1.3 mM CaCl2), 1.0 mM MgSO4, and about 4.2 mM NaHCO3) and diluted in series (e.g., in a 1:10 serial dilution) to a final 1:1000 dilution.
One μL (microliter) of SYTO 9 stain (e.g., ThermoFisher Scientific) working stock solution was added to the final dilution at a final concentration of 5 μM and incubated for 5 minutes before counting bacterial events by acoustic flow cytometer (AFC) (Attune, ThermoFisher, Eugene, Oreg., USA), which was used to prepare a standardised inoculum density for susceptibility testing.
as §1
One millilitre of bacterial suspension from each antibiotic concentration was harvested by centrifugation at 7800×g for 5 minutes, washed and diluted 1:10 in filtered HBSS in a light-impermeable microcentrifuge tube, then stained with SYTO 9 stain at a final concentration of 5 μM, and incubated for 5 min before AFC sampling. Hoechst 33342 dye (NucBlue, Thermo Fisher Scientific, Eugene, Oreg., USA) and a SYTO 9/propidium iodide (PI) combination (Thermo Fisher Scientific) were used in a series of replicate experiments.
The acoustic flow cytometer employed was Attune acoustic flow cytometer (Thermo Fisher Scientific), having installed therein a 488 nm blue laser with a 530/30 nm filter on the photomultiplier tube for measuring fluorescence of cells assayed. Alternatively, the Attune NxT acoustic flow cytometer (Thermo Fisher Scientific) can be employed. AFC was calibrated at the beginning of each acquisition session using fluorescently labelled size calibration beads, in accordance with the manufacturer's instructions (ThermoFisher Scientific). The AFC settings were as follows: Forward Scatter (FSC) voltage 3100, FSC threshold 4×1000 AND, blue laser 1 (BL1—530/30 nm) voltage 1900, BL1 threshold 1×1000 AND, high sensitivity, flow rate 25 μL/minute, and an acquisition volume of 125 μL. Acquisition was halted after either collection of 20,000 events across all gates, or after 3 minutes, with each sample acquired in technical triplicate.
Collected data was exported in the FCS 3.0 file format and analysed in Flow v10.0 (FlowJo LLC, Ashland, Oreg., USA) by a single user, blinded to the MIC results by BMD (MICBMD).
Subsequent to quantitative MICFAST determination, the acoustic flow cytometer data were re-analysed in silico to produce a limited sub-set for qualitative susceptibility determination. The six antibiotic dilutions (0 mg/L, 0.25 mg/L, 1 mg/L, 2 mg/L, 4 mg/L and 16 mg/L) most relevant to qualitative susceptibility assessment were used. In silico analysis was restricted to the first technical triplicate of each recorded sample. Gating strategies remained consistent, with the addition of a gate restricting analysis to only those events recorded in the first 60 seconds of acquisition.

Staphylococcus aureus [3] = assay: Broth microdilution (BMD) MIC of Staphylococcus aureus isolates; type: cell-based
Text: The acoustic flow cytometry assisted method of the present invention was employed essentially as described in the previous working examples to determine susceptibility of Staphylococcus aureus to both cefoxitin and oxacillin. Susceptibility classification into S/NS and quantitative MIC values obtained using the acoustic flow cytometry assisted method were compared to results obtained using the conventional broth microdilution (BMD) method. Results are shown in Table 4 (Panels A and B) below and in FIGS. 9-12.

Staphylococcus aureus [4] = assay: Acoustic flow cytometry-assisted susceptibility test (FAST) of Staphylococcus aureus isolates; type: cell-based; design: MIC dilution at which susceptibility-associated signature is observed by AFC: unit not given beside the values
Experimental: The material and methods utilized are briefly outlined herein below. The method used was similar to that outlined in the earlier examples albeit adjusted to allow for 3 hour incubation of Staphylococcus aureus to account for longer doubling times of Staphylococcus aureus relative to K. pneumoniae used in the previous examples.
Events were acquired by forward scatter and BL1 (515 nm-545 nm) using the Attune with voltages and thresholding set as follows: Forward Scatter Voltage: 3050; Forward Scatter Threshold: 3×1000 AND; Side Scatter Voltage: 2950; Side Scatter Threshold: IGNORE; BL1 Voltage: 1500; BL1 Threshold: 1×1000 AND.
Nine mL of MHB was aliquoted into twelve, 50 mL Falcon tubes. Each tube was labelled with the required final test concentration of antibiotic. […] Tubes were transferred to a 35° C. incubator to pre-warm.
One 1 mL of the overnight bacterial suspension was transferred into a 1.5 mL microcentrifuge tube and centrifuge at 7,800×g for about 5 minutes. The supernatant was discarded, and the pellet re-suspended in 1 mL of 0.1 μm filtered HBSS. This step was optionally repeat.
About 900 μL of HBSS was dispended into three 1.5 mL tubes—two clear tubes and one amber tube. About 100 μL of the bacterial suspension was inoculated into the first tube (clear) and serially dilute to reach 1:1000 by the third tube (amber). About 1 μl of SYTO 9 (5 μM final concentration) was added to the third tube. The dye was incubated, protected from light, for at least 5 minutes (individual sample types were optionally required with longer incubations) and then the Stained Control on the Attune acoustic flow cytometer instrument was read
The event density (events/μL) from your stained control aliquots was used to calculate the inoculum volume required to produce a 5.5×10^5 bacteria mL-1 in 10 mL of MHB. For example, (400 events/A)/(10 mL×550000)=7.3 μL, rounded up to the closest 10 μL.
The required volume of bacterial suspension was added from the overnight culture into each 50 ml tube with 9 ml of preheated MHB. Optionally incubate with shaking and protected from light, at 100 RPM at 35° C. for 60 minutes.
MHB (0.1 μm filtered) was used to dilute the antibiotics in this preparation. About one aliquot of antibiotic was removed from the −20° C. freezer and equilibrated to room temperature by ambient heat exchange, and diluted to reach a range of working stock concentrations that were are ten times the desired test concentrations.
Once the 60-minute incubation of bacterial suspension was complete, about 1 mL of 10× antibiotic stocks were added to tubes containing bacterial suspensions to reach final desired test concentrations (1 ml antibiotic and total volume 10 ml). The 50 mL tubes were returned to the incubator and incubated, by shaking at 100 RPM at 35° C., for a further 3 hours.
After 3 hours, about 1 mL suspension was harvested from each tube and transferred to a 1.5 mL clear microcentrifuge tube (marked with the corresponding antibiotic concentration), then centrifuge at 7,800×g for 5 minutes. The supernatant discarded and the pellet resuspended in 1 mL of 0.1 μm filtered HBSS. This wash step was optionally repeated.
Using the computer connected to the Attune, new samples were created ready for the collection of data. That the following parameters were set: Sensitivity: High Sensitivity; Flow Rate: 25 μL/minute; Acquisition Volume: 125 μL; Events Collected: No less than 20,000 from all gates, Time: 1 minute.
About 899 μL HBSS was dispensed into one 1.5 mL amber tube per sample. About 100 μL of suspension per tube was added to achieve a 1 in 10 dilution. About 1 μl of SYTO 9 was added to each tube and the tube vortexed for no more than 2 seconds (over vortexing can lead to bacterial clustering and/or attachment to tube walls).
Samples were placed on the SIP and acquired, in technical triplicate, as per the parameters outlined above. […]

[5] = K. pneumoniae ATCC 700603 (carbapenem susceptible control)
[6] = K. pneumoniae ATCC BAA1705 (carbapenem resistant control)
[7] = S. aureus isolate ATCC 29213, MSSA
[8] = S. aureus isolate W0096111, MSSA
[9] = S. aureus isolate W0226111, MSSA
[10] = S. aureus isolate W0236111, MSSA
[11] = S. aureus isolate W0296111, MSSA
[12] = S. aureus isolate W0816111, MSSA
[13] = S. aureus isolate W0866111, MRSA
[14] = S. aureus isolate W6496111, MSSA
[15] = S. aureus isolate W9196111, MSSA
[16] = S. aureus isolate W9346111, MRSA
[17] = S. aureus isolate W . . . 6111, MRSA
[18] = S. aureus isolate WACC 98, MRSA

SMILES: C[C@@H](O)[C@H]1C(=O)N2C(C(=O)O)=C(S[C@@H]3CN[C@H](C(=O)Nc4cccc(C(=O)O)c4)C3)[C@H](C)[C@H]12 [Analytical Ertapenem, ertapenem]
- MICBMD (Klebsiella isolates [1]; [5]): ≤0.25
- MICBMD (Klebsiella isolates [1]; [6]): >16
- MICFAST (Klebsiella isolates [2]; [5]): ≤0.25
- MICFAST (Klebsiella isolates [2]; [6]): >16

SMILES: C[C@@H](O)[C@H]1C(=O)N2C(C(=O)O)=C(SCCN=CN)C[C@H]12 [Analytical Imipenem, imipenem]
- MICBMD (Klebsiella isolates [1]; [5]): 2
- MICBMD (Klebsiella isolates [1]; [6]): >16
- MICFAST (Klebsiella isolates [2]; [5]): 1
- MICFAST (Klebsiella isolates [2]; [6]): >16

- MIC (BMD) (Staphylococcus aureus [3]; [7]): 4 µg/mL
- MIC (BMD) (Staphylococcus aureus [3]; [8]): 2 µg/mL
- MIC (BMD) (Staphylococcus aureus [3]; [9]): 2 µg/mL
- MIC (BMD) (Staphylococcus aureus [3]; [10]): 2 µg/mL
- MIC (BMD) (Staphylococcus aureus [3]; [11]): 4 µg/mL
- MIC (BMD) (Staphylococcus aureus [3]; [12]): 2 µg/mL
- MIC (BMD) (Staphylococcus aureus [3]; [13]): 32 µg/mL
- MIC (BMD) (Staphylococcus aureus [3]; [14]): 4 µg/mL
- MIC (BMD) (Staphylococcus aureus [3]; [15]): 2 µg/mL
- MIC (BMD) (Staphylococcus aureus [3]; [16]): 32 µg/mL
- MIC (BMD) (Staphylococcus aureus [3]; [17]): 16 µg/mL
- MIC (BMD) (Staphylococcus aureus [3]; [18]): 128 µg/mL
- MIC dilution at which susceptibility-associated signature is observed by AFC (Staphylococcus aureus [4]; S. aureus ATCC 29213): 4
- MIC dilution at which susceptibility-associated signature is observed by AFC (Staphylococcus aureus [4]; S. aureus WACC 98): 128
- MIC (FAST) (Staphylococcus aureus [4]; [7]): 2 µg/mL (≈ 4.68 µM)
- MIC (FAST) (Staphylococcus aureus [4]; [8]): 4 µg/mL (≈ 9.36 µM)
- MIC (FAST) (Staphylococcus aureus [4]; [9]): 2 µg/mL (≈ 4.68 µM)
- MIC (FAST) (Staphylococcus aureus [4]; [10]): 4 µg/mL (≈ 9.36 µM)
- MIC (FAST) (Staphylococcus aureus [4]; [11]): 4 µg/mL (≈ 9.36 µM)
- MIC (FAST) (Staphylococcus aureus [4]; [12]): 2 µg/mL (≈ 4.68 µM)
- MIC (FAST) (Staphylococcus aureus [4]; [13]): 16 µg/mL (≈ 37.4 µM)
- MIC (FAST) (Staphylococcus aureus [4]; [14]): 4 µg/mL (≈ 9.36 µM)
- MIC (FAST) (Staphylococcus aureus [4]; [15]): 4 µg/mL (≈ 9.36 µM)
- MIC (FAST) (Staphylococcus aureus [4]; [16]): 32 µg/mL (≈ 74.9 µM)
- MIC (FAST) (Staphylococcus aureus [4]; [17]): 16 µg/mL (≈ 37.4 µM)
- MIC (FAST) (Staphylococcus aureus [4]; [18]): 64 µg/mL (≈ 150 µM)
SMILES: CO[C@@]1(NC(=O)Cc2cccs2)C(=O)N2C(C(=O)O)=C(COC(N)=O)CS[C@@H]21 [Cefoxitin, cefoxitin]
